This is an account of results in patent publication US9499705B2, “Radically polymerizable photo-curable ink jet ink composition” (Seiko Epson Corporation, priority 2013, dated 2016).

Data set [1] can be described thus: Redispersibility after long-time storage (rate of change in absorbance of agitated ink after one year). It is filed as physicochemical. The settings on record: redispersing effect of the saturated aliphatic carboxylic acid in the ink. Here is the method: Ink bags containing respective ink compositions were allowed to stand at room temperature (25° C.) with the rectangular face of the ink bag in a horizontal position for a year. […] Subsequently, the ink bag was turned upside down and was reciprocally moved 50 times in the same manner with the rectangular face of the ink gab in a horizontal position. After the ink composition in the ink bag was thus agitated, the ink composition was sampled from the upper side in the ink gab with the ink inlet facing up. Then, the absorbance of the sampled ink composition was measured with a spectrophotometer U-3300 (manufactured by Hitachi) and compared with the absorbance before the storage. […] As a larger amount of sediment settles, the density of the white pigment in the ink composition tends to be reduced, and accordingly the absorbance after storage is generally low.

A short description of data set [2]: Acid dissociation constant pKa of saturated aliphatic carboxylic acids. The class given is physicochemical. As to conditions: for pKa1: first acid dissociation constant; for pKa2: second acid dissociation constant. The source says: The acid dissociation constant pKa1 of the saturated aliphatic carboxylic acid is preferably 4.0 or more, more preferably 4.0 to 4.5, still more preferably 4.1 to 4.5. If the saturated aliphatic carboxylic acid is divalent or more polyvalent, the second acid dissociation constant pKa2 is preferably 5.0 or more. The acid dissociation constant pKa can be measured by, for example, titration, absorptiometry, or capillary electrophoresis.

As for `O=C(O)CCCCC(=O)O` [Adipic acid], in data set [1], the Redispersion entry is on record as “Excellent”. In data set [2], the pKa1 was 4.26 and the pKa2 is listed as 5.03.
Turning to `O=C(O)CC(O)(CC(=O)O)C(=O)O` [Citric acid], the Redispersion entry in data set [1] is recorded as “Fair”. In addition, in data set [2], the pKa1 was found to be 2.87 and the pKa2 is 4.35. The pKa3 in data set [2] (third acid dissociation constant) came to 5.69.
On to `CCCCCCCCCCCCCCCC(=O)O` [Palmitic acid], for which the Redispersion entry in data set [1] is “Good”. The compound further returned a pKa1 in data set [2] of 4.64.
Turning to `O=C(O)CCC(=O)O` [Succinic acid], in data set [1], the Redispersion result was “Good”. Further, in data set [2], the pKa1 is reported as 4 and the pKa2 was 5.24.
